Columns and labels:
S. aureus = format: cell-based, Staphylococcus aureus; details: single compound
Excerpt: (§1) The mutant prevention concentration (MPC) is the drug concentration that blocks the growth of the least susceptible, single-step mutant. Above this concentration, cell growth requires the presence of two or more resistance mutations. Since two concurrent mutations are expected to arise rarely, resistance is expected to develop rarely when drug concentrations are kept above the MPC. For further information regarding the MPC, it is by way of example referred to Drlica, K. (2003). The mutant selection window and antimicrobial resistance. Journal of Antimicrobial Chemotherapy, 52(1), 11-17; and to Blondeau, J. M. (2009). New concepts in antimicrobial susceptibility testing: the mutant prevention concentration and mutant selection window approach. Veterinary dermatology, 20(5-6), 383-396.

[1] = system: Staphylococcus aureus Newbould 305 (ATCC 29740); assay: S. aureus mouse mastitis model (MMM), intramammary treatment; format: in vivo, lactating CD-1 mice; details: for Median CFU log10: glands harvested 18 h after inoculation
Description: The mice were treated intramammarily (IMAM) with enrofloxacin, fosfomycin and a combination of enrofloxacin and fosfomycin as detailed in Table 1 four hours after inoculation. Each treatment group contained at least 3 mice (6 glands). Fourteen hours later (18 hours after inoculation) mice were sacrificed, mammary glands were harvested and the CFU content evaluated by plating 10-fold serial dilutions of mammary gland homogenates. The CFU content was expressed as log10 count. The detection limit was 200 CFU/g of gland. Glands with less than 200 CFU/g were regarded as cleared of S. aureus (see Table 1).
For each treatment group median log10 reductions of CFU were determined by subtracting the median log10 CFU value of the respective group from the median log10 CFU value of the untreated control group.

Staphylococcus aureus = assay: Field trial, dairy cattle with subclinical mastitis; format: in vivo; details: 400 mg cefazolin and/or 1000 mg fosfomycin per quarter, six times at 12 h interval; for Cure rate of S. aureus infection / Cure rate of S. aureus infection (cured quarters/treated quarters): paraffin based ointment, milk samples 3 and 4 weeks after treatment
Description: In another field trial, dairy cattle with subclinical mastitis, i.e. persistent, chronic udder infections caused by Staphylococcus aureus, were treated with either cefazolin, fosfomycin or a combination of both compounds. […] The affected quarters were treated with this ointment six consecutive times with an interval of 12 hours between each application. […] Following treatment, the level of udder inflammation, as measured by the Somatic Cell Count in the milk samples post treatment, was lower in the udders treated with the cefazolin-fosfomycin combination (46% of milk samples with a SCC lower than 300,000 cells/mL) than in udders treated with cefazolin alone (30% of milk samples with a SCC lower than 300,000 cells/mL) or with fosfomycin alone (24% of milk samples with a SCC lower than 300,000 cells/mL).

[2] = system: Streptococus uberis, Staphylococus aureus, Escherichia coli, other streptococci and mixed infections; assay: Field study, dairy cattle with clinical mastitis; format: in vivo; details: 400 mg cefazolin and/or 1000 mg fosfomycin per quarter, paraffin based ointment, three times at 24 h interval; milk samples 1-3 weeks after treatment
Description: In a first field-study, dairy cattle with clinical mastitis were treated under field conditions with either cefazolin, fosfomycin or a combination of both compounds. […] The diseased quarters were treated with this ointment three consecutive times with an interval of 24 hours between each application. When a milk sample was taken from the diseased udder quarters before the treatment for the diagnosis of mastitis infection, pathogenic bacteria typical of clinical mastitis were isolated, i.e. Streptococus uberis, Staphylococus aureus, Escherichia coli, other streptococci and mixed infections of the aforementioned species. […] Diseased udder quarters were considered cured when the clinical symptoms of mastitis had disappeared within one week without requiring a new antibiotic treatment and when the causative pathogenic bacterium, found in the diagnostic milk sample shortly before treatment, could not be isolated from any of the milk samples taken from one to three weeks following treatment. The cure rate of mastitis infection was higher in the udder quarters treated with the combination ointment (cefazolin together with fosfomycin), i.e. 17/38 (45%), than in the quarters treated with the ointment containing cefazolin alone ( 11/35, 31%) or fosfomycin alone ( 13/37, 35%).

E. coli = format: cell-based, Escherichia coli; details: single compound
Excerpt: as §1

[3] = dose 100 μg IMAM, listed as enrofloxacin

Row | SMILES | MPC against S. aureus (S. aureus) [µg/mL] | Cleared glands % (less than 200 CFU/g) ([1]; dose 100 μg IMAM) | log10 CFU reduction (median, vs untreated control) ([1]; dose 100 μg IMAM) [log10] | Cure rate of S. aureus infection (Staphylococcus aureus) [%] | Cure rate of S. aureus infection (cured quarters/treated quarters) (Staphylococcus aureus) | Cured quarters with SCC returned to normal (lower than 300,000 cells per mL) (Staphylococcus aureus) [%] | Cured quarters with SCC returned to normal (lower than 300,000 cells per mL), quarters/treated quarters (Staphylococcus aureus) | Milk samples post treatment with a SCC lower than 300,000 cells/mL (Staphylococcus aureus) [%] | Cure rate of mastitis infection [2] [%] | Cure rate of mastitis infection (cured quarters/treated quarters) [2] | MPC against E. coli (E. coli) [µg/mL] | also measured
1 | CCN1CCN(c2cc3c(cc2F)c(=O)c(C(=O)O)cn3C2CC2)CC1 [Enrofloxacin, enrofloxacin] | 3 | 0% | 1.41 | – | – | – | – | – | – | – | – | Median CFU log10 ([1]; dose 100 μg IMAM 4 h after inoculation): 6.8 CFU log10; Cleared glands % (less than 200 CFU/g) [1, 3]: does not eliminate the infection; log10 CFU reduction (median, vs untreated control) [1, 3]: 1.4 log10
2 | C[C@@H]1O[C@@H]1P(=O)(O)O [Fosfomycin, [(2R,3S)-3-methyloxiran-2-yl]phosphonic acid] | 1500 | does not eliminate the infection | 2.0 | 57 | 27/47 | 19 | 9/47 | 24 | 35 | 13/37 | 200 | Cleared glands % (less than 200 CFU/g) ([1]; dose 500 μg IMAM): 0%; log10 CFU reduction (median, vs untreated control) ([1]; dose 500 μg IMAM): 3.3 log10; Median CFU log10 ([1]; dose 500 μg IMAM 4 h after inoculation): 5.0 CFU log10; Cleared glands % (less than 200 CFU/g) ([1]; dose 500 μg IMAM, listed as fosfomycin): does not eliminate the infection; Cleared glands % (less than 200 CFU/g) ([1]; dose 1000 μg IMAM): 0%; log10 CFU reduction (median, vs untreated control) ([1]; dose 1000 μg IMAM): 5.1 log10; Median CFU log10 ([1]; dose 1000 μg IMAM 4 h after inoculation): 3.2 CFU log10; Cleared glands % (less than 200 CFU/g) ([1]; dose 1000 μg IMAM, listed as fosfomycin): does not eliminate the infection
3 | CC[C@@H]1CCN[C@H](C(=O)N[C@@H]([C@H]2O[C@H](SC)[C@H](O)[C@@H](O)[C@H]2O)[C@H](C)Cl)C1 [pirlimycin] | 2 | – | – | – | – | – | – | – | – | – | – | Cleared glands % (less than 200 CFU/g) ([1]; dose 10 microgram IMAM): does not eliminate the infection; log10 CFU reduction (median, vs untreated control) ([1]; dose 10 microgram IMAM): 3.3 log10
4 | Cc1nnc(SCC2=C(C(=O)O)N3C(=O)[C@@H](NC(=O)Cn4cnnn4)[C@H]3SC2)s1 [cefazolin] | 1.25 | does not eliminate the infection | 5.1 | 46 | 20/43 | 23 | 10/43 | 30 | 31 | 11/35 | 64 | Cleared glands % (less than 200 CFU/g) ([1]; dose 50 microgram IMAM): does not eliminate the infection; log10 CFU reduction (median, vs untreated control) ([1]; dose 50 microgram IMAM): 4.5 log10
5 | CC1(C)S[C@@H]2[C@H](NC(=O)[C@H](N)c3ccc(O)cc3)C(=O)N2[C@H]1C(=O)O [amoxicillin] | – | does not eliminate the infection | 1.6 | – | – | – | – | – | – | – | – | –

From patent publication US10265330B2, “Pharmaceutical compositions and treatment of mastitis” (BAYER ANIMAL HEALTH GMBH, priority 2012, dated 2019)
